Test results: the NIST ThermoML archive (doi:10.1021/je034259j)
Numbers after ± are expanded uncertainties.

Details: Liquid; for mass density: 298.15 K; for mass density / molar volume: 101.33 kPa; for molar volume / vapor or sublimation pressure: 313.15 K; for molar volume: Vibrating tube method; for vapor or sublimation pressure: Ebulliometric method (Recirculating still)

ClCBr [bromochloromethane]
mass density: 1924.88 ± 1.3 kg/m3 | molar volume: 6.9e-05 ± 1e-06 m3/mol | vapor or sublimation pressure: 37.28 ± 0.43 kPa

ClCCBr [1-bromo-2-chloroethane]
mass density: 1727.88 ± 1.9 kg/m3 | molar volume: 8.4e-05 ± 1e-06 m3/mol | vapor or sublimation pressure: 8.91 ± 0.1 kPa

CCOC(C)=O [ethyl acetate]
mass density: 894.97 ± 0.27 kg/m3 | molar volume: 0.000101 ± 1e-06 m3/mol | vapor or sublimation pressure: 25.3 ± 0.2 kPa

ClCCCl [1,2-dichloroethane]
mass density: 1246.59 ± 0.41 kg/m3 | molar volume: 8.1e-05 ± 1e-06 m3/mol | vapor or sublimation pressure: 21.05 ± 0.2 kPa

BrCBr [dibromomethane]
mass density: 2478.37 ± 2.3 kg/m3 | molar volume: 7.1e-05 ± 1e-06 m3/mol | vapor or sublimation pressure: 13.01 ± 0.15 kPa
